Data published in US20080292584A1 (priority 2005, published 2008).
Several values for one entry are separate records, joined by “and”; a condition that tells them apart may be missing. Equal values may be shown once. Read-outs that look alike come from different tables or passages of the source.

Assays:
CYP3A4 = CYP3A4 (Homo sapiens, UniProt P08684); conditions: for % Turnover Mean: both, human, microsomes, 1 h, pH 7.4
Protocol: Human liver microsomes pooled from 15 individuals (male and female) (Pool HMMC-PL020; CellzDirect, Inc., In Vitro Products and Services Division) were used in some experiments of this study.
% Turnover=100−{[TA(final)]/[mean of TA(0 min)]}×100,
% Inhibition of Turnover=100{1−([TA(0 min)]−[TA(final-inhibitor)])/([TA(0 min)]−[TA(final-no inhibitor)])}.
The inhibitors or vehicle control were incubated with the pooled human liver microsomes (1 mg/mL) and NADPH (1 mM) in 0.1 M phosphate buffer, pH 7.4. […] Incubations were conducted in triplicate and terminated by addition of organic solvent. Samples were extracted and analyzed by LC-MS/MS as described above.

CYP2B6 = biological target: T1, CYP2B6 (Homo sapiens, UniProt P20813); assay: Inhibition of CYP2B6 activity in pooled human liver microsomes (S-mephenytoin 1 mM to nirvanol); type: in vitro ADME
T1 sequence (P20813 1-491): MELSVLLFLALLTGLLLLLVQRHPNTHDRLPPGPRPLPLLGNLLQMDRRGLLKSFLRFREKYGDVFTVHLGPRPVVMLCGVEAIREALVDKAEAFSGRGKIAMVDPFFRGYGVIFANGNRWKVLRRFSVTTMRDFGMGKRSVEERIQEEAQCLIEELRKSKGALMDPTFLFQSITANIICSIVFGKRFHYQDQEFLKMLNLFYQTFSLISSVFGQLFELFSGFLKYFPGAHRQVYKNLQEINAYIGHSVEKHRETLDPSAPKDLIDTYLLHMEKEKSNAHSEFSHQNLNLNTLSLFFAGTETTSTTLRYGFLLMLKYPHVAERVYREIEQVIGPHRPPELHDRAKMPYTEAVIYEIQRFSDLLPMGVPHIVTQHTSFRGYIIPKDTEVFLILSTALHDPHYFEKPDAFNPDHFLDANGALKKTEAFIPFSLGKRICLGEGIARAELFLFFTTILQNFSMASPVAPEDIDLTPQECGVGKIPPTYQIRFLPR
Protocol: All other incubations were for 30 minutes.
Four replicates were performed.
Two replicates were performed.

[1] = 0.75 μM metaxalone, 1 mg/mL HLM, 60 min, with ketoconazole
[2] = 0.75 μM metaxalone, 1 mg/mL HLM, 60 min, with ketoconazole, single replicates
[3] = 7.5 μM metaxalone, 1 mg/mL HLM, 60 min, with ketoconazole
[4] = 7.5 μM metaxalone, 1 mg/mL HLM, 60 min, with ketoconazole, single replicates

Chain of CYP3A4 (P08684 whole entry): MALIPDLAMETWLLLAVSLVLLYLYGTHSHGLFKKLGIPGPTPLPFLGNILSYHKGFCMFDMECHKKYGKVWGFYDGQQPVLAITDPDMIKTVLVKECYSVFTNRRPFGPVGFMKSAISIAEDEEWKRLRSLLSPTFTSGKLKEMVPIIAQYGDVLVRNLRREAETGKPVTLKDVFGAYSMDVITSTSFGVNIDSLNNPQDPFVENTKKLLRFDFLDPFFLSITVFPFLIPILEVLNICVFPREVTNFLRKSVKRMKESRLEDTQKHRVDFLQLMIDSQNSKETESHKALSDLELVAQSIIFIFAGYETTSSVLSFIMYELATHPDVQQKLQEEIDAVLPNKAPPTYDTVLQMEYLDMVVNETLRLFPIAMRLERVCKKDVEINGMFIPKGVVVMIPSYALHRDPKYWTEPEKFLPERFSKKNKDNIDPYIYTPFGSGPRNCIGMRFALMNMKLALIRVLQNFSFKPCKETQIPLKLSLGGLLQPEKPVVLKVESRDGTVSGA

## Cc1cc(C)cc(OCC2CNC(=O)O2)c1 (stereo not shown) [metaxalone, 5-[(3,5-dimethylphenoxy)methyl]-2-oxazolidinone]
CYP3A4; [1]
  % inhibition of turnover Mean: 126%
  Mean Conc.: 0.831 µM
CYP3A4; [2]
  % inhibition of turnover: 132% and 116% and 130%
  Conc.: 0.844 µM and 0.807 µM and 0.842 µM
CYP3A4; [3]
  % inhibition of turnover Mean: 130%
  Mean Conc.: 9.13 µM
CYP3A4; [4]
  % Turnover: 0.28%
  % inhibition of turnover: 98.8% and 161% and 129%
  Conc.: 8.49 µM and 9.78 µM and 9.12 µM
CYP3A4; 0.75 μM
  % Turnover Mean: −7.71%
CYP3A4; 7.5 μM
  % Turnover Mean: −7.26%
CYP2B6; 0.3-100 μM metaxalone, p≦0.05
  inhibition of CYP activity at a statistically significant level: inhibited
CYP2B6; CYP isozyme 2B6, summary of studies
  Inhibitor: +
CYP2B6; metaxalone 0.3 μM
  Percent of VC: 90.2%
  Specific Activity Individual: 27.9 pmol/min/mg protein and 25.6 pmol/min/mg protein and 27.5 pmol/min/mg protein
  Specific Activity Mean ± SD: 27.0 ± 1.21 pmol/min/mg protein
CYP2B6; metaxalone 1 μM
  Percent of VC: 99.5%
  Specific Activity Individual: 27.3 pmol/min/mg protein and 29.5 pmol/min/mg protein and 32.6 pmol/min/mg protein
  Specific Activity Mean ± SD: 29.8 ± 2.68 pmol/min/mg protein
CYP2B6; metaxalone 3 μM
  Percent of VC: 90.6%
  Specific Activity Individual: 26.3 pmol/min/mg protein and 26.9 pmol/min/mg protein and 28.2 pmol/min/mg protein
  Specific Activity Mean ± SD: 27.1 ± 1.00 pmol/min/mg protein
CYP2B6; metaxalone 30 μM
  Percent of VC: 96.6%
  Specific Activity Individual: 28.9 pmol/min/mg protein and 28.7 pmol/min/mg protein and 29.2 pmol/min/mg protein
  Specific Activity Mean ± SD: 28.9 ± 0.216 pmol/min/mg protein
CYP2B6; metaxalone 100 μM
  Percent of VC: 83.7%
  Specific Activity Individual: 24.9 pmol/min/mg protein and 24.6 pmol/min/mg protein and 25.7 pmol/min/mg protein
  Specific Activity Mean ± SD: 25.1 ± 0.581 pmol/min/mg protein
